Laboratory results: PubChem BioAssay AID1919010 (Molecular Pharmacology Branch, DTP, NCI, 2023)
Where “and” joins values, the source holds several entries; their conditions need not be identical. Identical values can stand only once.

Tested on: Hs578T complex spheroid growth, percent test/control
Assay: Anticancer human tumor Hs578T cell line growth inhibition [AhR];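 further: luminescent viability signal as a proxy for spheroid growth; spheroids exposed to agents for one week after three days of growth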
Settings: for viability, T/C: stronger effect = lower value
Text: Multicellular complex tumor spheroid response to aryl hydrocarbon receptor antagonists in combination with a variety of drugs and investigational agents in selected tumor cell lines
The current study was undertaken to assess response to aryl hydrocarbon receptor antagonists in combination with standard-of-care drugs and investigational agents in solid tumor complex spheroid models. Complex spheroids include a stromal component modeled by human endothelial cells (HUVEC) and fibroblasts modeled by human mesenchymal stem cells (MSCs). The concentration ranges selected for each drug and investigational agent were based upon clinically achievable concentrations if the clinical Cmax of the agent was known.
Compounds. The drugs and investigational agents: BAY 2416964 (NSC825713), GNF351 (NSC835774), CH-223191 (NSC835775), CPI-455 (NSC825282), aza-TdCyd (NSC777586), decitabine (NSC127716), belinostat (NSC758774), entinostat (NSC756642), pevonedistat (NSC761192), tazemetostat (NSC777109), talazoparib (NSC765396), olaparib (NSC753686), selinexor (NSC780203), nedisertib (M3814, NSC802822), bortezomib (NSC756655), venetoclax (NSC766270), doxorubicin (NSC123127), elimusertib (BAY189344, NSC800525), ceralasertib (AZD6738, NSC777638), TAK-243 (NSC785004), alisertib (NSC759677), etoposide (NSC141540), topotecan (NSC609699), eribulin (NSC707389), gemcitabine (NSC613327), carboplatin (NSC241240), cisplatin (NSC119875), and SN-38 (NSC673596) were obtained from the National Cancer Institute (NCI) Developmental Therapeutics Program Chemical Repository (32). The FDA-approved anticancer drug set is available from the Developmental Therapeutics Program at https://dtp.cancer.gov/organization/dscb/obtaining/available plates.htm. […] The stock solutions were prepared in dimethyl sulfoxide (DMSO, Sigma-Aldrich, St. Louis, MO, cat. D2650), except for the platinum compounds which were prepared in saline (Quality Biological, Gaithersburg, MD, cat. 114-055-101), at 800-fold the tested concentration and stored at -70 degrees C prior to their use. All drugs and investigational agents were tested over a range starting from a high concentration at or near the clinical Cmax and decreasing in half-log increments. If the clinical Cmax for an agent had not been determined, the highest concentration tested was 10 microM (Table 1).
Cell Culture. All cells were maintained in an incubator at 37 degrees C and 5% CO2 with 95% humidity. The PDC lines were cultured according to standard operating procedures established by the NCI PDMR (https://pdmr.cancer.gov). Briefly, all PDCs were thawed and cultured in Matrigel-coated flasks prepared with a working solution of 1X Ham's F-12 nutrient mix, without supplementation (Invitrogen, Waltham, MA, cat. 11765054), 100 U/mL penicillin-streptomycin (Invitrogen, cat. 15140122), and 2.5% Matrigel (Corning Inc., Corning, NY, cat. 354248) for the first three passages. All PDCs were cultured in complete DMEM/F-12 media containing advanced DMEM/F-12 (Invitrogen, cat. 12634028), 4.9% defined fetal bovine serum, heat inactivated (HyClone Laboratories Inc., Logan, UT, cat. SH30070.03HI), 389 ng/mL hydrocortisone (Sigma-Aldrich, cat. H4001), 9.7 ng/mL human EGF recombinant protein (Invitrogen, cat. PHG0313), 23.4 microg/mL adenine (Sigma-Aldrich, cat. A2786), 97.3 U/mL penicillin-streptomycin (Invitrogen, cat. 15140122), 1.9 mM L-glutamine (Invitrogen, cat. 25030081), and 9.7 microM Y-27632 dihydrochloride (Tocris Bioscience, Bristol, United Kingdom, cat. 1254). The PDCs were cultured in complete DMEM/F12 media without 10 microM Y-27632 dihydrochloride for at least two passages prior to the screen. The established cell lines NCI-H1341 and […] were cultured in DMEM/F-12, HEPES (Invitrogen, cat. 11330032), 5% defined fetal bovine serum (HyClone Laboratories Inc., cat. SH30070.03), ITS premix universal culture supplement [insulin (5 microg/mL), transferrin (5 microg/mL), and selenious acid (5 ng/mL)] […]

IC50 (curve of compound)	Compound	viability, T/C (compound 0.0316 µM)	viability, T/C (compound 0.1 µM)	viability, T/C (compound 0.316 µM)	viability, T/C (compound 1 µM)	viability, T/C (compound 3.16 µM)	viability, T/C (compound 10 µM)	other results
6.56 nM and 5.49 nM and 4.5 nM	CC(C)CC(NC(=O)C(Cc1ccccc1)NC(=O)c1cnccn1)B(O)O (stereo not given)	–	–	–	–	–	–	viability, T/C (compound 0.000949 µM): 105% and 102% and 101%; viability, T/C (compound 0.003 µM): 94% and 86.9% and 73.4%; viability, T/C (compound 0.00949 µM): 29.3% and 16.7% and 7.03%; viability, T/C (compound 0.03 µM): 0.41% and 0.42% and 0.68%; viability, T/C (compound 0.0949 µM): 0.27% and 0.44% and 1.61%; viability, T/C (compound 0.3 µM): 0.58% and 0.42% and 0.53%
> 10000 nM	CC(C)c1c(-c2ccccc2)nc2c(C#N)c[nH]n2c1=O	103% and 106% and 97.8%	106% and 114% and 105%	102% and 101% and 106%	113% and 101% and 100%	102% and 116% and 98.1%	101% and 115% and 93.1%	–
–	CC(CO)NC(=O)c1cc(-c2ccc(Cl)cc2)nn(-c2cnn(C)c2)c1=O (stereo not given)	–	–	116% [middle of 21 runs]	109% [middle of 20 runs]	–	–	IC50 (compound alone, run of 08/08/2022): > 10000 nM
> 10000 nM	CC1(C)CCC(CN2CCN(c3ccc(C(=O)NS(=O)(=O)c4ccc(NCC5CCOCC5)c([N+](=O)[O-])c4)c(Oc4cnc5[nH]ccc5c4)c3)CC2)=C(c2ccc(Cl)cc2)C1	103% and 111% and 99.9%	110% and 109% and 97.8%	112% and 104% and 99.2%	91% and 103% and 92.9%	101% and 97.7% and 82.6%	84% and 62.3% and 78.2%	–
658 nM and 326 nM and 298 nM	CC1COCCN1c1cc(-c2ccnn2C)c2ccnc(-c3ccn[nH]3)c2n1 (stereo not given)	97.8% and 102% and 95.5%	78.7% and 81.3% and 77.2%	60.4% and 51% and 48.1%	44.3% and 36.2% and 37.9%	–	–	viability, T/C (compound 0.00316 µM): 109% and 104% and 102%; viability, T/C (compound 0.01 µM): 105% and 104% and 114%
> 10000 nM and 9320 nM	CC1COCCN1c1cc(C2(S(C)(=N)=O)CC2)nc(-c2ccnc3[nH]ccc23)n1 (stereo not given)	105% and 94.7% and 106%	108% and 91.7% and 112%	119% and 99.9% and 103%	105% and 89.6% and 108%	104% and 76.3% and 81.6%	60.3% and 48.3% and 55.5%	–
> 3000 nM	CCN(c1cc(-c2ccc(CN3CCOCC3)cc2)cc(C(=O)NCc2c(C)cc(C)[nH]c2=O)c1C)C1CCOCC1	–	–	–	–	–	–	viability, T/C (compound 0.00949 µM): 103% and 101% and 104%; viability, T/C (compound 0.03 µM): 105% and 99% and 108%; viability, T/C (compound 0.0949 µM): 109% and 101% and 95.7%; viability, T/C (compound 0.3 µM): 91.3% and 103% and 98.4%; viability, T/C (compound 0.949 µM): 100% and 97.4% and 94.9%; viability, T/C (compound 3 µM): 95.2% and 97.7% and 99.6%
> 100 nM	CC[C@@]1(O)C(=O)OCc2c1cc1n(c2=O)Cc2cc3c(CN(C)C)c(O)ccc3nc2-1	76.8% and 64.2% and 77.9%	69.3% and 71.8% and 68.2%	–	–	–	–	viability, T/C (compound 0.000316 µM): 94.7% and 97.6% and 107%; viability, T/C (compound 0.001 µM): 106% and 98.2% and 103%; viability, T/C (compound 0.00316 µM): 105% and 90.3% and 95.3%; viability, T/C (compound 0.01 µM): 96.5% and 72.5% and 96.3%
253 nM and 124 nM and 206 nM	CCc1c2c(nc3ccc(O)cc13)-c1cc3c(c(=O)n1C2)COC(=O)[C@]3(O)CC	–	–	–	–	–	–	viability, T/C (compound 0.000949 µM): 83.3% and 77.6% and 78.6%; viability, T/C (compound 0.003 µM): 70.5% and 82.2% and 73.2%; viability, T/C (compound 0.00949 µM): 74% and 64.3% and 76.1%; viability, T/C (compound 0.03 µM): 64.6% and 63.2% and 75%; viability, T/C (compound 0.0949 µM): 62.3% and 56.5% and 61.9%; viability, T/C (compound 0.3 µM): 47.1% and 38.3% and 43.4%
> 10000 nM	COc1cc(C2c3cc4c(cc3C(OC3OC5COC(C)OC5C(O)C3O)C3COC(=O)C23)OCO4)cc(OC)c1O (stereo not given)	85.4% and 94.6% and 92.8%	99.7% and 91.7% and 91.5%	84.1% and 88.8% and 79.9%	66.8% and 82.6% and 69.9%	69.5% and 79.7% and 71.9%	58.1% and 56.4% and 57.1%	–
9280 nM and 6150 nM and 8470 nM	COc1cc(Nc2ncc3c(n2)-c2ccc(Cl)cc2C(c2c(F)cccc2OC)=NC3)ccc1C(=O)O	78.2% and 84.4% and 89.2%	92.6% and 82.2% and 94%	97% and 80.2% and 85.2%	96.8% and 87% and 87.8%	89.2% and 70.9% and 81%	47.3% and 34.7% and 44.9%	–
4830 nM and 2640 nM and 3670 nM	COc1ccc([C@@H](O)c2cc(-c3ncnc4cc(N5CCOCC5)ccc34)c(F)cc2Cl)nn1	98.8% and 109% and 95.3%	106% and 104% and 89.5%	90.8% and 87.6% and 99.6%	90.1% and 71.2% and 78.9%	57.8% and 44.8% and 53.4%	35.3% and 31.1% and 33.9%	–
